Test results: PMC11674800, “Second-Generation Antipsychotics Induce Metabolic Disruption in Adipose Tissue-Derived Mesenchymal Stem Cells Through an aPKC-Dependent Pathway” (Cells, 2024)

How the values were obtained:
INSRβ signaling in ADSCs = experiment: Insulin signaling Western blot / INSRβ immunoprecipitation; assay type: cell-based, human; conditions: 5 μM, 16 h
Method: (§1) After treatments, whole-cell lysates were prepared using RIPA lysis buffer supplemented with protease inhibitors (AEBSF, aprotinin, bestatin, E-64, EDTA, leupeptin, Sigma-Aldrich, Saint Louis, MO, USA) and orthovanadate (Sigma-Aldrich, Saint Louis, MO, USA). The proteins in the lysates were collected and quantified using the Pierce BCA protein assay kit (Thermo Fisher Scientific, Waltham, MA, USA). Subsequently, the proteins were denatured by heating at 95 °C for 5 min in the presence of 2% Sodium Dodecyl Sulfate (SDS, Sigma-Aldrich, Saint Louis, MO, USA), 150 mM dithiothreitol (DTT, Sigma-Aldrich, Saint Louis, MO, USA), and 0.01% bromophenol blue (Sigma-Aldrich, Saint Louis, MO, USA). The samples were then analyzed using SDS-PAGE (SDS-Polyacrylamide Gel Electrophoresis) and Western blotting (WB).
Following treatment, the cells were stimulated with insulin at 50 ng/mL for 15 min. For the immunoprecipitation of the insulin receptor beta subunit (INSRβ), cell lysates were prepared using RIPA lysis buffer with protease inhibitors, as described previously. The lysates were then incubated for 1 h with magnetic beads (Dynabeads Protein G, Thermo Fisher Scientific, Waltham, MA, USA) that had been previously bound to anti-INSRβ antibody, following the manufacturer’s instructions. After incubation, the beads were washed three times with RIPA buffer to remove non-specifically bound proteins. The immunoprecipitated proteins bound to the beads were then eluted by boiling the beads at 95 °C for 5 min in the presence of 2% SDS, 150 mM DTT, and 0.01% bromophenol blue. The eluted proteins were analyzed using SDS-PAGE and, subsequently, using WB.

INSRβ = INSRβ endocytosis assay and immunofluorescence localization; assay type: cell-based, human; conditions: 5 μM, 16 h; 15 min insulin stimulation
Method: ADSCs were seeded at a density of 100,000 cells/well in a 6-well plate. The protocol was carried out as described in Barrow-McGee et al., 2015 [33]. Cell surface proteins were labeled by incubating the cells with 0.2 mg/mL sulpho-NHS-SS-biotin (Sigma-Aldrich, Saint Louis, MO, USA) in PBS for 45 min on ice. Labeled cells were then washed with cold PBS and incubated at 37 °C in a culture medium containing insulin at 50 ng/mL to allow for INSR trafficking. At the indicated times, the medium was removed and the dishes were transferred to ice and washed with cold PBS. Biotin was removed from the proteins that remained at the cell surface via reduction for 15 min with 180 mM of the membrane-impermeant reducing agent MesNa (sodium 2 mercaptoethane sulphonate, Sigma-Aldrich, Saint Louis, MO, USA) in 50 mM Tris and 100 mM NaCl at pH 8.6. MesNa was quenched by adding 180 mM iodoacetamide (IAA, Sigma-Aldrich, Saint Louis, MO, USA) for 10 min. The cells were lysed using RIPA buffer as previously described. The proteins were quantified using BCA; equal protein amounts received streptavidin–agarose beads (Sigma-Aldrich, Saint Louis, MO, USA) and were agitated at 4 °C for 2 h. Then, the beads were collected via centrifugation (7000× g) and washed in lysis buffer, and the proteins were extracted by heating at 95 °C with sample buffer. In each internalization assay, two controls were carried out. To measure INSRβ at the surface, biotinylated cells at 4 °C were lysed without biotin reduction (Ts). To verify the efficiency of the surface biotin removal, the biotin reduction and MesNa-quenching steps were carried out on cells that had remained on ice (T0). Then, lysis was carried out. All lysates were analyzed via Western blot.
The percentages of internalized INSR were calculated using the following formula: internalized receptor = (receptor level after incubation at 37 °C) − (receptor level at time 0)/(total surface receptor) × 100. All samples were normalized on the input INSR signal.
For INSRβ endocytosis experiments, the cells were stimulated with 50 ng/mL insulin for 15 min. For transferrin endocytosis experiments, the cells were incubated with 25 μg/mL Transferrin Texas Red for 5 min. After treatment, the cells were washed with PBS and fixed with 4% PFA for 10 min at room temperature, followed by an additional PBS wash. The cells were then permeabilized by incubating them with cold HEPES-Triton X-100 buffer for 5 min at 4 °C. […] Images were acquired using a confocal microscope (Leica TCS SP8, Wetzlar, Germany) and analyzed using ImageJ (v 1.52a) software in order to quantify and analyze the fluorescence signals.

cathepsin B = experiment: Cathepsin B Western blot; assay type: cell-based, human; conditions: 5 μM, 16 h
Method: as §1

3T3L1 cells = experiment: PA accumulation in cells transfected with DOCK2-Pii; assay type: cell-based, mouse; conditions: 5 μM, 16 h; compared to untreated controls
Method: Transfection was carried out using Lipofectamine 3000 (Thermo Fisher Scientific, Waltham, MA, USA), following the manufacturer’s instructions. The cells were incubated with the plasmid for 24 h to ensure successful transfection and plasmid expression and were used for experiments 48 h post-transfection.

TFEB = TFEB nuclear localization (confocal microscopy); assay type: cell-based, human; conditions: 5 μM, 16 h; compared to untreated cells
Method: For INSRβ endocytosis experiments, the cells were stimulated with 50 ng/mL insulin for 15 min. For transferrin endocytosis experiments, the cells were incubated with 25 μg/mL Transferrin Texas Red for 5 min. After treatment, the cells were washed with PBS and fixed with 4% PFA for 10 min at room temperature, followed by an additional PBS wash. The cells were then permeabilized by incubating them with cold HEPES-Triton X-100 buffer for 5 min at 4 °C. After permeabilization, the cells were incubated with primary antibodies for 30 min, followed by incubation with Alexa Fluor 488- or 546-conjugated secondary antibodies (Invitrogen, Waltham, MA, USA) and phalloidin, labeled with either Alexa Fluor 546 or 633 (Invitrogen Waltham, MA, USA) for 30 min. After incubation, coverslips were mounted on glass slides using a mounting medium. Images were acquired using a confocal microscope (Leica TCS SP8, Wetzlar, Germany) and analyzed using ImageJ (v 1.52a) software in order to quantify and analyze the fluorescence signals.

For `Cc1cc2c(s1)Nc1ccccc1N=C2N1CCN(C)CC1` [olanzapine], which “phosphorylated INSRβ serine residues” value (INSRβ signaling in ADSCs; basal and after insulin stimulation) is on record?
The value was “increased levels”.

And the “INSRβ tyrosine phosphorylation (P-INSRβ Y1146)” value (INSRβ signaling in ADSCs; insulin 50 ng/mL)?
The value was “reduction”.

What about the “P-AKT T308, P-AKT S473, and P-ERK T202/Y204” value (INSRβ signaling in ADSCs; insulin 50 ng/mL) of the same compound?
Its value is “decrease”.

And the “INSRβ colocalization in LAMP1-positive lysosomes” value (INSRβ)?
The value was “unaffected”.

What about the INSRβ internalization (INSRβ) of the same compound?
The INSRβ internalization was “significant reduction”.

What about the “INSRβ localization in CD63-positive recycling endosomes” value (INSRβ) of the same compound?
The value was “reduced”.

What about the “localization of INSRβ in RAB7-positive late endosomes” value (INSRβ) of the same compound?
The value was “significantly increased localization”.

And the “levels of cathepsin B” value (cathepsin B)?
Its value is “elevated levels”.

And the PA accumulation (3T3L1 cells)?
Its PA accumulation is “significant accumulation”.

What about the “increase in TFEB nuclear localization” value (TFEB) of the same compound?
The value was 50%.
